Assay [1] concerns Pan-02 pancreatic tumors. In words: Solid stress (tumor opening technique). More on the design: species or system C57BL/6 mouse. The conditions noted are these: mouse, in vivo. The source says: FIG. 25 is a bar graph showing that angiotensin inhibitors decrease stress in multiple tumor models. Solid stress levels in tumors after angiotensin inhibition using losartan are shown. […] Animal numbers n=10-11 (4T1 stress), n=4-8 (Pan-02 stress).
The mechanism responsible for the increase in tumor vessel perfusion by losartan was investigated. Desmoplasia, high stromal cell and matrix density, is a major contributor to the solid stress accumulation that compresses vessels (Stylianopoulos T, et al., Growth-induced mechanical stress in murine and human tumors: causes, consequences and remedies. under review. 2012). […] Moreover, losartan decreased collagen I concentration, measured based on staining intensity, in E0771 and AK4.4 tumors (FIGS. 24B-24C). […] Next, solid stress in these tumors was measured using recently established technique described in Stylianopoulos T, et al., Growth-induced mechanical stress in murine and human tumors: causes, consequences and remedies. under review. […]
Solid stress: Solid stress was measured using the tumor opening technique as described previously (Stylianopoulos T, et al., Growth-induced mechanical stress in murine and human tumors: causes, consequences and remedies. under review. 2012). […] Subsequently, each tumor was excised, washed with Hanks' Balanced Salt Solution (HBSS) and its three dimensions were measured. […]

Assay [2] deals with E0771 tumors. In words: Hypoxic fraction by pimonidazole staining. More on the design: species or system mice. To be noted: mouse, in vivo. The protocol:
Losartan decreases the hypoxic fraction in E0771 tumors (P=0.027, Student's t-test) due to the increase in oxygen delivery.
Oxygenation was then studied using phosphorescence quenching microscopy. […] This decrease in tumor hypoxia was confirmed by using pimonidazole staining (FIGS. 29D and 30). To determine if losartan also increases nanomedicine delivery, which is dependent on both vascular supply and penetration across vessel walls into tumor tissue, nanoparticle penetration was measured using intravital multiphoton microscopy. Nanoparticle penetration rates were quantified as transvascular mass flux per unit vascular surface area and transvascular concentration difference, termed as the effective permeability. […] Penetration rates are largely dependent on fluid flow through the viscoelastic and tortuous tumor interstitium, which is a function of interstitial hydraulic conductivity. It was determined that losartan also increases the hydraulic conductivity of E0771 tumors (FIG. 31), likely through its anti-matrix effects, and a mathematical model (Chauhan V P, et al., Nature Nanotechnology. 2012; advance online publication) was used to confirm that this can improve the penetration rate of all sizes of nanomedicines (FIG. 32). Thus, “microenvironmental normalization” with ARBs and ACE-Is increases the delivery of oxygen and all sizes of therapeutics to tumors. […]

In assay [3] the test system is E0771 breast tumors. Nature of the assay: Vessel perfusion histology (lectin / CD31). It is filed as in vivo, SCID mouse. The conditions noted are these: 40 mg/kg.

With `CCCCc1nc(Cl)c(CO)n1Cc1ccc(-c2ccccc2-c2nn[nH]n2)cc1` [losartan], the solid stress entry in assay [1] is recorded as “reduces solid stress”. In addition, the hypoxic fraction result in assay [2] is given as “decreases”. For the same molecule, in assay [3], the “CD31+ vessel density” value is reported as “did not affect” and the vessel diameters entry is recorded as “increased”.
